Results taken from the SangsterLogP compilation.

Experiment: method code SF, from DOI: 10.1002/jps.2600790712, PMID: 2398468

For C[C@H](CCCNCc1ccccc1)[C@H]1CC[C@H]2[C@@H]3C[C@H](O)[C@@H]4C[C@H](O)CC[C@]4(C)[C@H]3CC[C@]12C, which logP is on record?
The logP was 4.15.

Experiment: method code SF-AS, from DOI: 10.1002/jps.2600790712, PMID: 2398468

With C[C@H](CCCNCc1ccccc1)[C@H]1CC[C@H]2[C@@H]3CC[C@@H]4C[C@H](O)CC[C@]4(C)[C@H]3CC[C@]12C as the molecule, how does the logP read?
The logP was 4.9.

Which logP does the source give for C[C@H](CCCN)[C@H]1CC[C@H]2[C@@H]3[C@@H](O)C[C@@H]4C[C@H](O)CC[C@]4(C)[C@H]3CC[C@]12C here?
Its logP is 4.

With C[C@H](CCCNCc1ccccc1)[C@H]1CC[C@H]2[C@@H]3[C@H](O)C[C@@H]4C[C@H](O)CC[C@]4(C)[C@H]3C[C@H](O)[C@]12C as the molecule, how does the logP read?
The logP was 3.82.

With C[C@H](CCCNCc1ccccc1)[C@H]1CC[C@H]2[C@@H]3[C@H](O)C[C@@H]4C[C@H](O)CC[C@]4(C)[C@H]3CC[C@]12C as the molecule, how does the logP read?
The logP was 4.2.

With C[C@H](CCCNCc1ccccc1Cl)[C@H]1CC[C@H]2[C@@H]3CC[C@@H]4C[C@H](O)CC[C@]4(C)[C@H]3CC[C@]12C as the molecule, how does the logP read?
The logP was 5.05.

With C[C@H](CCCNCc1cccc(Cl)c1)[C@H]1CC[C@H]2[C@@H]3CC[C@@H]4C[C@H](O)CC[C@]4(C)[C@H]3CC[C@]12C as the molecule, how does the logP read?
The logP was 4.95.

Which logP does the source give for C[C@H](CCC(=O)NCc1ccccc1)[C@H]1CC[C@H]2[C@@H]3[C@H](O)C[C@@H]4C[C@H](O)CC[C@]4(C)[C@H]3C[C@H](O)[C@]12C here?
The logP was 3.54.

For C[C@H](CCCNCc1ccccc1)[C@H]1CC[C@H]2[C@@H]3CC[C@@H]4C[C@H](O)CC[C@]4(C)[C@H]3C[C@H](O)[C@]12C, which logP is on record?
Its logP is 4.8.

Which logP does the source give for C[C@H](CCCNCc1ccc(Cl)cc1)[C@H]1CC[C@H]2[C@@H]3CC[C@@H]4C[C@H](O)CC[C@]4(C)[C@H]3CC[C@]12C here?
The logP was 5.
